Molecular target: T1, PLK1 (Homo sapiens, UniProt P53350)
T1 construct: PLK kinase domain (amino acids 21-346 preceded by MKKGHHHHHHD); made in house; host or cells: baculovirus infected T. ni cells
Test: Assay for inhibition of PLK1 (SPA kinase assay)
Format: biochemical
Conditions: 1 μM ATP, 2 nM PLK1 kinase domain; for IC50: read-out: PLK1 pIC50 (converted)
Procedure: I. Assay for Inhibition of PLK1
A. Preparation of 6× N-terminal His-tagged PLK Kinase Domain
6× N-terminal His-tagged PLK kinase domain (amino acids 21-346 preceded by MKKGHHHHHHD) SEQ ID: No. 1. was prepared from baculovirus infected T. ni cells under polyhedrin promoter control. All procedures were performed at 4° C. Cells were lysed In 50 mM HEPES, 200 mM NaCl, 50 mM imidazole, 5% glycerol; pH 7.5. The homogenate was centrifuged at 14K rpm in a SLA-1500 rotor for 1 hr and the supernatant filtered through a 1.2 micron filter. The supernatant was loaded onto a Nickel chelating Sepharose (Amersham Pharmacia) column and washed with lysis buffer. Protein was eluted using 20%, 30% and 100% buffer B steps where buffer B was 50 mM HEPES, 200 mM NaCl, 300 mM imidazole, 5% glycerol; pH 7.5. Fractions containing PLK were determined by SDS-PAGE. Fractions containing PLK were diluted five-fold with 50 mM HEPES, 1 mM DTT, 5% glycerol; pH 7.5, then loaded on an SP Sepharose (Amersham Pharmacia) column. After washing the column with 50 mM HEPES, 1 mM DTT, 5% glycerol; pH 7.5, PLK was step eluted with 50 mM HEPES, 1 mM DTT, 500 mM NaCl; 5% glycerol; pH 7.5. PLK was concentrated using a 10 kDa molecular weight cutoff membrane and then loaded onto a Superdex 200 gel filtration (Amersham Pharmacia) column equilibrated in 25 mM HEPES, 1 mM DTT, 500 mM NaCl, 5% glycerol; pH 7.5. Fractions containing PLK were determined by SDS-PAGE. PLK was pooled, aliquoted and stored at −80° C. Samples were quality controlled using mass spectrometry, N-terminal sequencing and amino acid analysis.
B. Enzyme Activity +/− Inhibitors was Determined as Follows:
All measurements were obtained under conditions where signal production increased linearly with time and enzyme. Test compounds were added to white 384-well assay plates (0.1 μL for 10 μL and some 20 μL assays, 1 μL for some 20 μL assays) at variable known concentrations in 100% DMSO. DMSO (1-5% final, as appropriate) and EDTA (65 mM in reaction) were used as controls. Reaction Mix was prepared as follows at 22° C.: • 25 mM HEPES, pH 7.2 • 15 mM MgCl2 • 1 μM ATP • 0.05 μCi/well ^33P-γ ATP (10 Ci/mMol) • 1 μM substrate peptide (Biotin-Ahx-SFNDTLDFD) SEQ ID:No. 2. • 0.15 mg/mL BSA • 1 mM DTT • 2 nM PLK1 kinase domain (added last)
Reaction Mix (10 or 20 μL) was quickly added to each well immediately following addition of enzyme via automated liquid handlers and incubated 1-1.5 h at 22° C. The 20 μL enzymatic reactions were stopped with 50 μL of stop mix (50 mM EDTA, 4.0 mg/mL Streptavidin SPA beads in Standard Dulbecco's PBS (without Mg^2+ and Ca^2+), 50 μM ATP) per well. The 10 μL reactions were stopped with 10 μL of stop mix (50 mM EDTA, 3.0 mg/mL Streptavidin-coupled SPA imaging Beads (“LeadSeeker”) in Standard Dulbecco's PBS (without Mg^2+ and Ca^2+), 50 μM ATP) per well. Plates were sealed with clear plastic seals, spun at 500×g for 1 min or settled overnight, and counted in Packard TopCount for 30 seconds/well (regular SPA) or imaged using a Viewlux imager (LeadSeeker SPA). Signal above background (EDTA controls) was converted to percent Inhibition relative to that obtained in control (DMSO-only) wells.

T1 sequence (P53350 21-346): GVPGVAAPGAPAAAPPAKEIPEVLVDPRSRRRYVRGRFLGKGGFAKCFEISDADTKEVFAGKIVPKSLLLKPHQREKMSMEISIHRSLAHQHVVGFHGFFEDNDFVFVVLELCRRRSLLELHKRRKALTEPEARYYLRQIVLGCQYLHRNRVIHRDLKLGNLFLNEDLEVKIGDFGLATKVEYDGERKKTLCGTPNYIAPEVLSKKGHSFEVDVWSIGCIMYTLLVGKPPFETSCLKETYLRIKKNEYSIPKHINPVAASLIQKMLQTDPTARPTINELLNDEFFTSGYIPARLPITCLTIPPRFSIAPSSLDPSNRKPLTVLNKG

Structure (SMILES)	IC50 [nM]	PLK1 pIC50
C[C@@H](Oc1cc(-n2cnc3cc(-c4cnn(C)c4)ccc32)sc1C(N)=O)c1c(F)ccc(OC2CCN(C)CC2)c1Cl [Example 38, 3-[((1R)-1-{2-Chloro-6-fluoro-3-[(1-methyl-4-piperidinyl)oxy]phenyl}ethyl)oxy]-5-[5-(1-methyl-1H-pyrazol-4-yl)-1H-benzimidazol-1-yl]-2-thiophenecarboxamide]	< 100	–
C[C@@H](Oc1cc(-n2cnc3cc(-c4cnn(C)c4)ccc32)sc1C(N)=O)c1cccc(OC2CCNCC2)c1Cl [Example 47, 3-({(1R)-1-[2-Chloro-3-(4-piperidinyloxy)phenyl]ethyl}oxy)-5-[5-(1-methyl-1H-pyrazol-4-yl)-1H-benzimidazol-1-yl]-2-thiophenecarboxamide]	< 100	–
C[C@@H](Oc1cc(-n2cnc3cc(-c4cnn(C)c4)ccc32)sc1C(N)=O)c1cccc(OC2CCN(C)CC2)c1Cl [Example 48, 3-[((1R)-1-{2-Chloro-3-[(1-methyl-4-piperidinyl)oxy]phenyl}ethyl)oxy]-5-[5-(1-methyl-1H-pyrazol-4-yl)-1H-benzimidazol-1-yl]-2-thiophenecarboxamide]	< 100	–
C[C@@H](Oc1cc(-n2cnc3ccc(Br)cc32)sc1C(N)=O)c1cccc(OC2CCNCC2)c1Cl [Example 7, 5-(6-Bromo-1H-benzimidazol-1-yl)-3-({(1R)-1-[2-chloro-3-(4-piperidinyloxy)phenyl]ethyl}oxy)-2-thiophenecarboxamide]	< 100	–
C[C@@H](Oc1cc(-n2cnc3cc(Cl)ccc32)sc1C(N)=O)c1cccc(OC2CCN(CCO)CC2)c1Cl [Example 20, 5-(5-Chloro-1H-benzimidazol-1-yl)-3-{[(1R)-1-(2-chloro-3-{[1-(2-hydroxyethyl)-4-piperidinyl]oxy}phenyl)ethyl]oxy}-2-thiophenecarboxamide]	< 100	–
Cn1cc(-c2ccc3c(c2)ncn3-c2cc(OCc3cccc(OC4CCNCC4)c3)c(C(N)=O)s2)cn1 [Example 83, 5-[5-(1-Methyl-1H-pyrazol-4-yl)-1H-benzimidazol-1-yl]-3-({[3-(4-piperidinyloxy)phenyl]methyl}oxy)-2-thiophenecarboxamide]	< 100	–
COc1cc2ncn(-c3cc(O[C@H](C)c4cccc(OCCN5CCN(C)CC5)c4Cl)c(C(N)=O)s3)c2cc1OC [Example 42, 5-[5,6-Bis(methyloxy)-1H-benzimidazol-1-yl]-3-{[(1R)-1-(2-chloro-3-{[2-(4-methyl-1-piperazinyl)ethyl]oxy}phenyl)ethyl]oxy}-2-thiophenecarboxamide]	< 100	–
C[C@@H](Oc1cc(-n2cnc3cc(-c4cnn(C)c4)ccc32)sc1C(N)=O)c1cccc(OCC2CCN(C(=O)OC(C)(C)C)CC2)c1Cl [Example 43, 1,1-Dimethylethyl 4-[({3-[(1R)-1-({2-(aminocarbonyl)-5-[5-(1-methyl-1H-pyrazol-4-yl)-1H-benzimidazol-1-yl]-3-thienyl}oxy)ethyl]-2-chlorophenyl}oxy)methyl]-1-piperidinecarboxylate]	100 to 1000	–
C[C@@H](Oc1cc(-n2cnc3cc(Cl)ccc32)sc1C(N)=O)c1cccc(OC2CCNCC2)c1Cl [Example 8, 5-(5-Chloro-1H-benzimidazol-1-yl)-3-({(1R)-1-[2-chloro-3-(4-piperidinyloxy)phenyl]ethyl}oxy)-2-thiophenecarboxamide]	< 100	–
C[C@@H](Oc1cc(-n2cnc3ccc(CS(C)(=O)=O)cc32)sc1C(N)=O)c1cccc(OC2CCN(C)CC2)c1Cl [Example 55, 3-[((1R)-1-{2-chloro-3-[(1-methyl-4-piperidinyl)oxy]phenyl}ethyl)oxy]-5,6-{6-[(methylsulfonyl)methyl]-1H-benzimidazol-1-yl}-2-thiophenecarboxamide]	< 100	–
C[C@@H](Oc1cc(-n2cnc3cc(-c4cnn(C)c4)ccc32)sc1C(N)=O)c1cccc(OCCN2CCOCC2)c1Cl [Example 25, 3-{[(1R)-1-(2-chloro-3-{[2-(4-morpholinyl)ethyl]oxy}phenyl)ethyl]oxy}-5-[5-(1-methyl-1H-pyrazol-4-yl)-1H-benzimidazol-1-yl]-2-thiophenecarboxamide]	< 100	–
C[C@@H](Oc1cc(-n2cnc3ccc(S(C)(=O)=O)cc32)sc1C(N)=O)c1cccc(OC2CCNCC2)c1Cl [Example 60, 3-({(1R)-1-[2-chloro-3-(4-piperidineloxy)phenyl]ethyl}oxy)-5-[6-(methylsulfonyl)-1H-benzimidazol-1-yl]-2-thiophenecarboxamide]	–	+++ (pIC50>7)
C[C@@H](Oc1cc(-n2cnc3cc(-c4cnn(C)c4)ccc32)sc1C(N)=O)c1cccc(OCC2CCN(C)CC2)c1Cl [Example 45, 3-{[(1R)-1-(2-Chloro--3-{[(1-methyl-4-piperidinyl)methyl]oxy}phenyl)ethyl]oxy}-5-[5-(1-methyl-1H-pyrazol-4-yl)-1H-benzimidazol-1-yl]-2-thiopnenecarboxamide]	< 100	–
CC(Oc1cc(-n2cnc3cc(-c4cnn(C)c4)ccc32)sc1C(N)=O)c1ccnc(OC2CCNCC2)n1 (racemic) [Example 77, (+/−)-5-[5-(1-Methyl-1H -pyrazol-4-yl)-1H-benzimidazol-1-yl]-3-({1-[2-(4-piperidinyloxy)-4-pyrimidinyl]ethyl}oxy)-2-thiophenecarboxamide]	100 to 1000	–
CC(Oc1cc(-n2cnc3cc(-c4cnn(C)c4)ccc32)sc1C(N)=O)c1cccc(OC2CCNCC2)c1 (racemic) [Example 73, (+/−)-5-[5-(1-Methyl-1H-pyrazol-4-yl)-1H-benzimidazol-1-yl]-3-({1-[3-(4-piperidinyloxy)phenyl]ethyl}oxy)-2-thiophenecarboxamide]	< 100	–
Cc1nnc(-c2ccc3c(c2)ncn3-c2cc(O[C@H](C)c3cccc(OC4CCN(C)CC4)c3Cl)c(C(N)=O)s2)o1 [Example 88, 3-[((1R)-1-{2-chloro-3-[(1-methyl-4-piperidinyl)oxy]phenyl}ethyl)oxy]-5-[5-(5-methyl-1,3,4-oxadiazol-2-yl)-1H-benzimidazol-1-yl]-2-thiophenecarboxamide]	< 100	–
C[C@@H](Oc1cc(-n2cnc3cc(Br)ccc32)sc1C(N)=O)c1cccc(OC2CCN(C)CC2)c1Cl [Example 51, 5-(5-Bromo-1H-benzimidazol-1-yl)-3-[((1R)-1-{2-chloro-3-[(1-methyl-4-piperidinyl)oxy]phenyl}ethyl)oxy]-2-thiophenecarboxamide]	< 100	–
C[C@@H](Oc1cc(-n2cnc3ccc(CS(C)(=O)=O)cc32)sc1C(N)=O)c1cccc(OCC2CCCN2C)c1Cl (stereo partly drawn) [Example 57, 3-({(1R)-1-[2-Chloro-3-({[(2S)-1-methyl-2-pyrrolidinyl]metliyl}oxy)phenyl]ethyl}oxy)-5-{6-[(methylsulfonyl)methyl]-1H-benzimidazol-1-yl}-2-thiophenecarboxamide]	< 100	–
CC(Oc1cc(-n2cnc3cc(-c4cnn(C)c4)ccc32)sc1C(N)=O)c1ccnc(OC2CCN(C)CC2)n1 (racemic) [Example 78, (+/−)-3-[(1-{2-[(1-methyl-4-piperidinyl)oxy]-4-pyrimidinyl}ethyl)oxy]-5-[5-(1-methyl-1H-pyrazol-4-yl)-1H-benzimidazol-1-yl]-2-thiophenecarboxamide]	100 to 1000	–
C[C@@H](Oc1cc(-n2cnc3ccc(OC(F)(F)F)cc32)sc1C(N)=O)c1cccc(OC2CCN(C)CC2)c1Cl [Example 64, 3-[((1R)-1-{2-chloro-3-[(1-methyl-4-piperidinyl)oxy]phenyl}ethyl)oxy]-5-{6-[(trifluoromethyl)oxy]-1H-benzimidazol-1-yl}-2-thiophenecarboxamide]	< 100	–
